Measurements reported in patent US20110008888A1, “Novel Genetic Approaches to Reduce or Inhibit Tumorgenicity of Human Embryonic Stem Cells and Derivatives Following Transplantation” (The John Hopkins University, priority 2005, published 2011).
Entries after “also recorded” stand apart in the source; their conditions may differ. Read-outs that look alike come from different tables or passages of the source.

Tests used:
[1] = system: delayed rectifier K+ currents (IKDR) in mESCs; assay: Whole-cell patch clamp, block of IKDR in undifferentiated mESCs; type: cell-based, mouse; settings: for IC50: whole-cell patch clamp, room temperature
IKDR in hESCs = assay: Whole-cell patch clamp, block of IKDR in undifferentiated hESCs; type: cell-based, human; settings: pluripotent hESCs (H1)
mESCs = assay: Cell proliferation assay, mESCs (viable cell count after 48 hours); type: cell-based, mouse; settings: for effect on proliferation of mESCs (words): dose-dependent, p<0.05; for EC50: mESCs, cell number after 48 hours, read-out: half-effective concentration (EC50) for inhibition of mESC proliferation
hESCs = assay: Cell proliferation assay, hESCs (colony parameters after 6 days); type: cell-based, human; settings: for effect on proliferation of hESCs: dose-dependent, p<0.05
ESCs = assay: Cytotoxic effects of K+ channel blockers on ESCs; settings: high concentrations

| Compound | IC50 ([1]; undifferentiated mESCs) | IC50 (IKDR in hESCs) | effect on proliferation of mESCs (words) (mESCs) | effect on proliferation of mESCs (words) (mESCs; listed as TEA+) | EC50 (mESCs) | effect on proliferation of hESCs (hESCs) | EC50 (hESCs; hESCs, colony parameters after 6 days, read-out: EC50 for inhibition of hESC proliferation) | EC50 (mESCs; Mus musculus) | IKDR component sensitive to blocker ([1]; mESCs, 100 nM IBTX) | current inhibition of IKDR in mESCs ([1]; undifferentiated mESCs, IBTX 100 nM, n=3) | cytotoxic effects (ESCs) |
| --- | --- | --- | --- | --- | --- | --- | --- | --- | --- | --- | --- |
| CC[N+](CC)(CC)CC [TEA] | 1.4 ± 0.38 mM | 2.1 ± 0.2 mM | significantly reduced | significantly inhibited | 11.9 ± 1.2 mM | significantly reduced | 3.8 ± 0.1 mM |  |  |  |  |
| Nc1ccncc1 [4-AP, 4-aminopyridine] | 0.55 ± 0.17 mM |  | significantly reduced |  |  | significantly reduced |  | 4 ± 1.8 mM |  |  |  |
| iberiotoxin [IBTX] |  |  | significantly reduced; also recorded: dose-dependently reduced |  |  | significantly reduced |  |  | sensitive | 33.2±12.7% | cytotoxic effects |
